# In patent US11472846B2, “Compositions and methods for treating diseases by inhibiting exosome release” (priority 2016, dated 2022):
# Experiments:
# [1] = tested on: MCF-7 breast cancer cells; assay: InnoCyte cell migration assay, MCF-7; type: cell-based, human; conditions: MCF-7 cells, 1120 nM SMR peptide or 3 μM Latrunculin A, 24 hours
# Experimental: (§1) 7-12. Cell migration assay. Cell migration assays were performed using the InnoCyte Cell Migration Assay (EMD Millipore Corporation, Temecula, Calif.) according to the manufacturer's instructions. Briefly, cell migration was monitored in the presence and absence of SMRwt peptides or latrunculin A (positive control inhibitor), which were added to the lower chamber of a 96-well plate. MCF-7 and MDA-MB-231 breast cancer cells and non-tumorigenic MCF-10A breast cells were harvested by 0.25% Trypsin-EDTA (Life Technologies) release and resuspended at 250,000500,000 cells/ml in serum-free RPMI 1640 media. A total of 25,000-50,000 cells was added to the upper chamber and allowed to migrate through an 8-μm pore-size membrane for 24 hours at 37° C. in a 5% CO2 atmosphere. Cells that migrated through the membrane were detached and labeled with Calcein-AM fluorescent dye. Fluorescence was measured using a Fluorescence Plate Reader (Molecular Devices, Sunnyvale, Calif.) with an excitation wavelength of 485 nm and an emission wavelength of 515 nm. The experiment was repeated in triplicate, and each conditioned experiment was performed in quadruplicate.
# [2] = tested on: MDA-MB-231 breast cancer cells; assay: InnoCyte cell migration assay, MDA-MB-231; type: cell-based, human; conditions: MDA-MB-231 cells, 280 nM SMR peptide or 3 μM Latrunculin A, 24 hours
# Experimental: as §1
structure (smiles),measurement,setting,value
"C/C1=C/C(=O)O[C@@H]2C[C@@H](CC[C@H](C)/C=C\C=C\CC1)O[C@@](O)([C@@H]1CSC(=O)N1)C2 [latrunculin A, reference compound]",reduced migration by,[1],53.05%
same,reduced migration by,[2],50.39%
